Results taken from US7863274B2, “Deuterium enriched analogues of tadalafil as PDE5 inhibitors” (Concert Pharmaceuticals Inc., priority 2005, dated 2011).

Assays:
[1] = test system: spontaneously hypertensive rats; experiment: Hypotensive effects in the spontaneous hypertensive rat model (Cerep); assay type: in vivo; settings: oral administration, 10 mg/kg, 8 rats per group, over 8 h
Experimental: Hypotensive effects in the spontaneous hypertensive rat model. Effects of the products of examples 7, 9, 12, 18, 27 and 30 are tested by oral administration to spontaneously hypertensive rats at Cerep, using essentially the procedure of Bazil M K et. al., J. Cardiovasc. Pharmacol. 1993 22: 897 and a sample size of 8 rats per group.

[2] = humans, cited from earlier work

SMILES | reduction in blood pressure [1] | further results
[2H]C1([2H])Oc2ccc([C@@H]3c4[nH]c5ccccc5c4C[C@@H]4C(=O)N(C)CC(=O)N34)cc2O1 [Example 27, (6R,12aR)-6-(2,2-dideuterobenzo[d]-1,3-dioxol-5-yl)-2-methyl-1,2,3,4,6,7,12,12a-octahydropyrazino[1′,2′:1,6]pyrido[3,4-b]indole-1,4-dione] | significant reductions in blood pressure sustained over 8 h | 
CN1CC(=O)N2[C@H](c3ccc4c(c3)OCO4)c3[nH]c4ccccc4c3C[C@@H]2C1=O [Compound 1, (6R,12aR)-6-(1,3-benzodioxol-5-yl)-2-methyl-1,2,3,4,6,7,12,12a-octahydropyrazino[1′,2′:1,6]pyrido[3,4-b]indole-1,4-dione] |  | half-life and exposure (AUC) when dosed concurrently with CYP3A4 inhibitors ([2]; co-dosing with inhibitors of CYP3A4): clinically meaningful increases; absorption following oral administration ([2]; oral): well absorbed; amount excreted unchanged ([2]; oral): only a minor amount
CN1CC(=O)N2[C@H](c3ccc4c(c3)OC(F)(F)O4)c3[nH]c4ccccc4c3C[C@@H]2C1=O [Example 18, (6R,12aR)-6-(2,2-Difluorobenzo[d]-1,3-dioxol-5-yl)-1,2,3,4,6,7,12,12a-octahydropyrazino[1′,2′:1,6]pyrido[3,4-b]indole-2-methyl-1,4-dione] | significant reductions in blood pressure sustained over 8 h | 
[2H][C@@]1(c2ccc3c(c2)OC(F)(F)O3)c2[nH]c3ccccc3c2C[C@@H]2C(=O)N(C)CC(=O)N21 [Example 12, (6R,12aR)-6-Deutero-6-(2,2-difluorobenzo[d]-1,3-dioxol-5-yl)2-methyl-1,2,3,4,6,7,12,12a-octahydropyrazino[1′,2′:1,6]pyrido[3,4-b]indole-1,4-dione] | significant reductions in blood pressure sustained over 8 h | 
[2H]c1cc2c(cc1[C@@H]1c3[nH]c4ccccc4c3C[C@@H]3C(=O)N(C)CC(=O)N13)OC(F)(F)O2 [Example 9, (6R,12aR)-6-(6-Deutero-2,2-difluorobenzo[d]-1,3-dioxol-5-yl)-2-methyl-1,2,3,4,6,7,12,12a-octahydropyrazino[1′,2′:1,6]pyrido[3,4-b]indole-1,4-dione] | significant reductions in blood pressure sustained over 8 h | 
[2H]C1([2H])Oc2ccc([C@@H]3c4[nH]c5ccccc5c4C[C@@H]4C(=O)N(C([2H])([2H])[2H])CC(=O)N34)cc2O1 [Example 30, (6R,12aR)-6-(2,2-dideuterobenzo[d]-1,3-dioxol-5-yl)-1,2,3,4,6,7,12,12a-octahydropyrazino[1′,2′:1,6]pyrido[3,4-b]indole-2-trideuteromethyl-1,4-dione] | significant reductions in blood pressure sustained over 8 h | 
[2H]C([2H])([2H])N1CC(=O)N2[C@H](c3ccc4c(c3)OC(F)(F)O4)c3[nH]c4ccccc4c3C[C@@H]2C1=O [Example 7, (6R,12aR)-6-(2,2-Difluorobenzo[d]-1,3-dioxol-5-yl)-1,2,3,4,6,7,12,12a-octahydropyrazino[1′,2′:1,6]pyrido[3,4-b]indole-2-trideuteromethyl-1,4-dione] | significant reductions in blood pressure sustained over 8 h | 
